According to patent publication US11471462B2, “Compositions and methods for detecting and treating diabetes” (THE BROAD INSTITUTE, INC., priority 2016, dated 2022):
Residues, ends and D or L forms follow the SMILES beside them. *: point of attachment. Cbz = O=C(OCc1ccccc1)*

Key:
Type in all cases: cell-based, human
SLC16A11 protein [1] = test: SLC16A11 protein levels in HuH7 cells cultured with metabolites (Western blot); details: HuH7 cells stably expressing SLC16A11, cultured with metabolite 24 hr
Excerpt: FIG. 19 provides Western blots and experimental protocol steps involved in the analysis of SLC16A11 protein levels after culture of HuH7 cells stably expressing SLC16A11 in the presence or absence of various metabolites, namely, pyruvate, lactate and glucose. Cell lysates were used in the analysis. […] Tubulin is shown as a reference. As shown, glucose, pyruvate and […] are metabolites that affect SLC16A11 protein levels.
FIG. 20 provides Western blots of V5-tagged SLC16A11 (WT) and the V5-tagged SLC16A11 variant, T2D risk, stably expressed in HuH7 cells that had been glucose-starved for the times indicated. Cell lysates were used in the analysis. […] A similar finding is observed in the left blot of FIG. 19, above, in which no SLC16A11 protein was detected in cell lysates cultured for 24 hrs without glucose compared with detectable levels of SLC16A11 protein found in lysates from cultures containing 1-5 g/L of glucose.
FIG. 21 provides Western blots of V5-tagged SLC16A11 (WT) and the V5-tagged SLC16A11 variant, T2D risk, stably expressed in HuH7 cells that been cultured for 24 hours with or without glucose and with either low (L) or high (H) concentrations of pyruvate and lactate as indicated. Cell lysates were used in the analysis. […]

SLC16A13 = test: Metabolic effectors on SLC16A13 transcript levels in SNU761 cells; details: 24 hours, high concentration (10 mM pyruvate, 100 mM lactate)
Experimental: (§1) FIG. 22 provides bar graphs showing the effects of low and high concentrations of metabolic effectors (oleic acid (OA), insulin and glucagon) on expression levels of SLC16A11 and SLC16A13 transcripts in SNU761 cells cultured for 24 hours in the presence of low/high concentrations of OA (0.3 mM/1.5 mM); insulin (100 nM/500 nM); or glucagon (100 nM/500 nM). Relative transcipt levels of SLC16A11 and SLC16A13 are shown, with 2-FBS (2% Fetal Bovine Serum) used as control.
(§2) FIG. 23 provides bar graphs showing the effects of low and high concentrations of pyruvate or lactate on expression levels of SLC16A11 and SLC16A13 transcripts in SNU761 cells cultured for 24 hours in the presence of 2 mM pyruvate (low), 10 mM pyruvate (high), 20 mM lactate (low), or 100 mM lactate (high). Relative transcipt levels of SLC16A11 and SLC16A13 are shown, compared with transcript levels in cell cultured in increasing concentrations of glucose.
(§3) To assess whether metabolic effectors regulated SLC16A11 and SLC16A13 transcript levels, endogenous transcripts in SNU761 cells (derived from a human hepatocellular carcinoma) were examined following exposure of the cells to different metabolic perturbations. SNU761 cells were cultured in the presence of various metabolic effectors for 24 hours after which time cell lysates were collected and the relative endogenous expression levels of SLC16A11 and SLC16A13 transcripts were assessed. The metabolic effectors included in the cell cultures included oleic acid (OA) at a low concentration (0.3 mM) or a high concentration (1.5 mM); insulin at a low concentration (100 nM) or a high concentration (500 nM) and glucagon at a low concentration (100 nM) and a high concentration (500 nM). Cells cultured in 2-FBS were used as a control. […] (FIG. 22). Similarly, SNU761 cells were cultured in the presence or absence of low or high concentrations of pyruvate or lactate in the culture medium for 24 hours after which time cell lysates were analyzed. In the cultures, low (L) pyruvate concentration was 2 mM; high (H) pyruvate concentration was 10 mM, and low lactate concentration was 20 mM, while high lactate concentration was 100 mM. […] (FIG. 23).

SLC16A11 = test: Metabolic effectors on SLC16A11 transcript levels in SNU761 cells; details: 24 hours, low and high concentrations
Experimental: as §1, §2, §3

SLC16A11 protein [2] = test: Proteasomal degradation: SLC16A11 protein levels by Western blot; details: HuH7 cells stably expressing SLC16A11^REF-V5; 5 μM for 3 hrs
Experimental: FIG. 5D (top panel) provides two Western blots showing that SLC16A11 is degraded by the proteasome and has a short half-life relative to other SLC16 family members. […] HEK293T cells expressing V5-tagged SLC16A11^REF, SLC16A13, or SLC16A1 were treated with cycloheximide (10 μg/mL) for the indicated times. Note that the SLC16A11, SLC16A13, and SLC16A1 images are from different exposure times. […] HuH7 cells stably expressing SLC16A11^REF-V5 were treated with MG132 (5 μM) or cyclohexamide for 3 hrs. FIG. 5D (bottom panel) provides Western blot showing SLC16A11 and BSG co-immunoprecipitations. (5D-A-5D-C): Co-immunoprecipitation of SLC16A11 and BSG confirms the reduced interaction between SLC16A11^T2D and BSG in HEK293T cells. BSG is glycosylated and runs as multiple bands by reducing SDS-PAGE. Molecular weight markers (kDa) are indicated. (5D-A): Interaction of BSG-V5 with immunoprecipitated SLC16A11-HA. (5D B): Interaction of SLC16A11-HA with immunoprecipitated BSG-V5. (C) Interaction of endogenous BSG with immunoprecipitated SLC16A11-HA. […]
Total protein concentration was measured using a BCA assay (Thermo Fisher Scientific) and equal quantities of protein were loaded on each gel. […] Signals were detected with HRP-conjugated secondary antibodies, followed by chemiluminescent detection and autoradiography. […]

CC(O)C(=O)O (stereo not shown) [lactate]
SLC16A11 protein levels (SLC16A11 protein [1]): alter SLC16A11 protein levels | relative transcript levels of SLC16A13 (SLC16A13): increased | SLC16A11 transcript levels (SLC16A11): alter transcripts at 17p13

CC(C)C[C@@H](C=O)NC(=O)[C@H](CC(C)C)NC(=O)[C@H](CC(C)C)NC(=O)OCc1ccccc1 [MG132] (Cbz-Leu-Leu-Leu-aldehyde)
SLC16A11 protein levels (SLC16A11 protein [2]): increased
